The test system of experiment [1] is Human kidney cancer cell line 786-O cells. In kind it is in vivo. The note with it: 786-O subcutaneous xenograft, nude mice, ADC (1) 1 mg/kg i.v. on Day 0, belzutifan 0.3 mg/kg orally once daily, five times a week for 3 weeks. The method, then: Mouse: Six-week-old female BALB/c nude mice (The Jackson Laboratory Japan, Inc.) were subjected to an experiment.
Measurement and calculation expression: The long diameter and short diameter of each tumor were measured twice a week using electronic digital calipers (CD-15CX, Mitutoyo Corp.), and the volume of the tumor was then calculated. The following expression was used in the calculation.
The anti-CDH6 antibody-drug conjugate (1) was diluted with ABS buffer (10 mM acetate buffer (pH 5.5), 5% sorbitol), and the dilution was intravenously administered at a dose of 10 mL/kg to the tail of each mouse. Belzutifan was suspended in 10% dimethyl sulfoxide, 40% polyethylene glycol 300, 5% Tween-80, and 45% physiological saline, and the suspension was administered orally at a dose of 10 mL/kg.
Human kidney cancer cell line 786-O cells purchased from ATCC (American Type Culture Collection) were suspended in Matrigel Matrix, and the cell suspension was subcutaneously inoculated at a dose of 4×10^6 cells to the right flank region of each female nude mouse. […]
Tumor growth inhibition (TGI) is calculated according to the following expression.
Change from baseline (%) (percentage change of average tumor volume on Day 21 from an average tumor volume on Day 0 as a baseline) was calculated according to the following expression, and is shown in FIG. 15.

The target in a further experiment is T1, Topoisomerase I (Homo sapiens, UniProt P11387).
T1 sequence (P11387 1-765): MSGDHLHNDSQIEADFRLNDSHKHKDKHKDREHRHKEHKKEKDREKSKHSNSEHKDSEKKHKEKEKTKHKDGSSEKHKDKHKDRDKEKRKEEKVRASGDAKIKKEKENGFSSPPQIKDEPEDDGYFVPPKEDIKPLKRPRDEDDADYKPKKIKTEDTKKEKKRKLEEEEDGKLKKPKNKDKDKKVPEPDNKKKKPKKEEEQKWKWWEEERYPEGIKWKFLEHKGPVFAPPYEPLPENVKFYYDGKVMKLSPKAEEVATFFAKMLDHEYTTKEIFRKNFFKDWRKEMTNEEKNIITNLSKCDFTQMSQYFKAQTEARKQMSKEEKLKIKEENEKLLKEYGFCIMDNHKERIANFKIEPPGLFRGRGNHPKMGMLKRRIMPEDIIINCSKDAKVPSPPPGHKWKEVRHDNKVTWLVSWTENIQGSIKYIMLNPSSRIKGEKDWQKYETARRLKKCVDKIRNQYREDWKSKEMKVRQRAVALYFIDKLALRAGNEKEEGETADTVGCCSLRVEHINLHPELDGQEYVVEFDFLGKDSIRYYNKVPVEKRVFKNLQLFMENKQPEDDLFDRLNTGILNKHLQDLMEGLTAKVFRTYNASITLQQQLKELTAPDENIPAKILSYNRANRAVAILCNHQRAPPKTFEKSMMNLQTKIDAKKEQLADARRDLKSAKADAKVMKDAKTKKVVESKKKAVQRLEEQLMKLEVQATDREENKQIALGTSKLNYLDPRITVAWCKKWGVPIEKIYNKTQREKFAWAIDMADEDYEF
The note with it: Ogitani Y. et al., Clinical Cancer Research 2016; cited from earlier work.

Here are results for two compounds from US20260248938A1, “COMBINATION OF ANTI-CDH6 ANTIBODY-DRUG CONJUGATE AND HIF-2alpha INHIBITOR” (DAIICHI SANKYO COMPANY, LIMITED, priority 2023, published 2026).

Take `CS(=O)(=O)c1ccc(Oc2cc(F)cc(C#N)c2)c2c1[C@H](O)[C@H](F)[C@@H]2F` [Belzutifan, belzutifan]: the “Tumor growth inhibition (TGI)” value in experiment [1] (Day 21) is 29%. For the same compound, the “Change from baseline (%) (percentage change of average tumor volume on Day 21 from average tumor volume on Day 0)” value in experiment [1] (Day 21 vs Day 0) turned out to be 53%.
Take `CC[C@@]1(O)C(=O)OCc2c1cc1n(c2=O)Cc2c-1nc1cc(F)c(C)c3c1c2[C@@H](NC(=O)CO)CC3` [compound (A)]: the “Topoisomerase I inhibitory effect” value at Topoisomerase I is recorded as “confirmed to have a topoisomerase I inhibitory effect”.
